# ChEMBL document CHEMBL2057148, “Synthesis of a Microcystis aeruginosa predicted metabolite with antimalarial activity” (Bioorg Med Chem Lett, 2012)
# Tests used:
# Plasmodium falciparum [1] = assay: Antimalarial activity against chloroquine-resistant Plasmodium falciparum K1 infected in human A-positive type erythrocytes assessed as [3H]hypoxanthine incorporation after 24 hrs by scintillation counting; assay type: functional, organism-based
# Plasmodium falciparum [2] = assay: Ratio of IC50 for aerucyclamide B to compound IC50 for chloroquine-resistant Plasmodium falciparum K1 infected in human A-positive type erythrocytes assessed as [3H]hypoxanthine incorporation after 24 hrs by scintillation counting; assay type: functional
smiles,measurement,setting,value
CC[C@H](C)[C@@H]1NC(=O)c2csc(n2)[C@H]([C@@H](C)CC)NC(=O)c2csc(n2)CNC(=O)c2nc1oc2C [MACROCYCLE],IC50,Plasmodium falciparum [1],0.18 µM
same,Ratio IC50,Plasmodium falciparum [2],4
